According to US7485315B2, “Compositions comprising a compound of low solubility and a lipophilic amino acid derivative, uses thereof and process for dissolving a compound of low solubility” (L'Oreal, priority 2001, dated 2009):

Legend:
[1] = Simple solubility in isopropyl N-lauroylsarcosinate
Method: Protocol: The derivatives of low solubility in water are weighed out and placed in a sealed pill bottle. The required amount of solvent is added. The suspension is stirred (magnetic stirring) at 80° C. for not more than 1 hour.
The non-solubility of the active agent in the solvent is characterized macroscopically by a precipitate or just a cloudy solution, and microscopically by the presence of crystals.
The solvent used is isopropyl N-lauroylsarcosinate.

[2] = Dissolution by lipophilic amino acid derivatives without recrystallization; type: physicochemical; conditions: in lipophilic amino acid derivatives, after 24 hours at 25° C.
Method: By way of illustration, the lipophilic amino acid derivatives used for the purposes of the present patent application allowed the dissolution of: • more than 20% of aminophenol derivatives without recrystallization after three weeks at 25° C., • more than 15% of salicylic acid derivatives without recrystallization after three weeks at 25° C. • about 4% of diosgenin or hecogenin acetate without recrystallization after 24 hours at 25° C.

[3] = content 5% in isopropyl N-lauroylsarcosinate
[4] = content 2% in isopropyl N-lauroylsarcosinate

Stability over time at 25° C. (clear for) [1, 3]	SMILES	Amount dissolved without recrystallization [2]	Stability over time at 25° C. (clear for) [1, 4]	also measured
clear for 7 days	CCCCCCCC(=O)c1ccc(O)c(C(=O)O)c1 [5-n-octanoylsalicylic acid]	–	–	Stability over time at 25° C. (clear for) ([1]; content 9% in isopropyl N-lauroylsarcosinate): clear for 4 days; Stability over time at 25° C. ([1]; content 27% in isopropyl N-lauroylsarcosinate): clear
clear for 18 days	CCOC(=O)Nc1ccc(O)cc1 [N-ethoxycarbonyl-para-aminophenol, N-ethoxycarbonyl-4-para-aminophenol]	–	–	Stability over time at 25° C. (clear for) ([1]; content 20% in isopropyl N-lauroylsarcosinate): clear for 6 days; Stability over time at 25° C. (clear for) ([1]; content 23% in isopropyl N-lauroylsarcosinate): clear for 6 days; Stability over time at 25° C. (clear for) ([1]; content 26% in isopropyl N-lauroylsarcosinate): clear for 1 day

Further lines, the compound ahead of its results:

SMILES	Stability over time at 25° C. (clear for) [1, 3]	Amount dissolved without recrystallization [2]	Stability over time at 25° C. (clear for) [1, 4]	also measured
CCCCCCCCCCCCNc1ccnc(N)[n+]1[O-] [2-amino-4-dodecylaminopyrimidine 3-oxide]	–	–	–	Stability over time at 25° C. (clear for) ([1]; content 1% in isopropyl N-lauroylsarcosinate): clear for 1 day
C[C@@H]1CC[C@@]2(OC1)O[C@H]1C[C@H]3[C@@H]4CC=C5C[C@@H](O)CC[C@]5(C)[C@H]4CC[C@]3(C)[C@H]1[C@@H]2C [Diosgenin, 5-spirostene-3-β-ol]	–	about 4%	clear for 3 weeks	–
CC(=O)O[C@H]1CC[C@@]2(C)[C@@H](CC[C@@H]3[C@@H]2CC(=O)[C@]2(C)[C@@H]4[C@H](C[C@@H]32)O[C@]2(CC[C@@H](C)CO2)[C@H]4C)C1 [Hecogenin acetate, (3β, 5α, 25R)-3-hydroxyspirostan-12-one (hecogenin acetate)]	–	about 4%	clear for 1 day	–
